Results from patent US20110319660A1 (Galactic SA, priority 2008, published 2011).

Assays:
[1] = Secondary nucleation temperature Tn of lactic acid solution; format: physicochemical
Procedure: We measured the secondary nucleation temperature for more reproducibility. For this purpose, a few large crystals (three or four) are introduced into the slightly subcooled solution (26° C.). These crystals are used to initiate nucleation. To obtain nucleation, the solution is cooled according to a cooling gradient of 10° C./hr. The nucleation temperature is measured when the first crystal (excluding crystals in solution) appears.

[2] = Thermal stability test: colour after heating at reflux at 200° C. for two hours; conditions: 90% solution of crystals
Procedure: The analyses conducted on the 90% crystal solutions are a measurement of the colour at ambient temperature (APHA scale in Hazen units) and a thermal stability test consisting of measuring the colour (APHA scale in Hazen units) of the substance after heating at reflux at a temperature of 200° C. for two hours.

[3] = Specific surface area by mass of crystals by optical microscopy; format: physicochemical
Description: The specific surface area by mass (SSM) of crystals is the area developed by the crystals per unit of weight. The specific surface area by mass (SSM) is used to compare the dimensional characteristics of crystals of a suspension or a powder with those of another suspension or powder. This specific surface area can be measured by means of optical imaging on the basis of a volume (Vm) and the mean surface area (Sm) of hundreds of crystals (by measuring the length of the face thereof) and the density of the crystals (Dc):
The crystal size measurements were made using an optical microscope (Askania RME5) equipped with a digital camera (Nikon Coolpix 4500) with crystal measurement software supplied by Leica. For both test conditions, the length (L1) and thickness (L2) of 200 crystals were measured.
The specific surface area by mass of the crystals obtained at low supersaturation is 0.03 m^2/g whereas that of the crystals at high supersaturation is 0.06 m^2/g. This is calculated by taking the surface area and the volume of a parallelepiped having a length L1 and width and thickness L2.
The specific surface area by mass of the crystals is also estimated by measuring the length and thickness of 200 crystals of each sample according to the protocol described in example 1.

secondary nucleation temperature ([1]; Example 1: lactic acid concentration 92%, colour 2000 Hazen, relative monomer content 96%): 18 °C
Tn ([1]; Example 2: lactic acid concentration 90%, colour 1800 Hazen, relative monomer content 94%): 18 °C
Tn ([1]; Example 4: lactic acid concentration 95.4%, colour 1900 Hazen, relative monomer content 91%): 33 °C
Tn ([1]; total acidity 89%, free acidity 78.7%, relative monomer content 77%): 8 °C
Tn ([1]; total acidity 89%, free acidity 84%, relative monomer content 89%): 15 °C
Tn ([1]; total acidity 89%, free acidity 87.6%, relative monomer content 97.5%): 22 °C
Tn ([1]; total acidity 89%, free acidity 88.2%, relative monomer content 99%): 23 °C
Colour after heating (200° C., 2 hrs), after drying ([2]; Example 2: supersaturation 14%): 500 Hazen
Colour after heating (200° C., 2 hrs), after passage on Noritt ROX activated carbon (20 g/l) ([2]; Example 2: supersaturation 14%): 25 Hazen
Colour after heating (200° C., 2 hrs), after washing (25% of a 90% lactic acid solution, 4° C.) ([2]; Example 2: supersaturation 14%): 49 Hazen
Colour after heating (200° C., 2 hrs), after drying ([2]; Example 2: supersaturation 50%): 900 Hazen
Colour after heating (200° C., 2 hrs), after passage on Noritt ROX activated carbon (20 g/l) ([2]; Example 2: supersaturation 50%): 45 Hazen
Colour after heating (200° C., 2 hrs), after washing (25% of a 90% lactic acid solution, 4° C.) ([2]; Example 2: supersaturation 50%): 88 Hazen
Colour after heating (200° C., 2 hrs), after drying ([2]; Example 2: supersaturation 86%): 1328 Hazen
Colour after heating (200° C., 2 hrs), after washing (25% of a 90% lactic acid solution, 4° C.) ([2]; Example 2: supersaturation 86%): 480 Hazen
Specific surface area by mass ([3]; Example 1: crystals obtained at high supersaturation Ds^c=87.5%): 0.06 m^2/g
Specific surface area by mass ([3]; Example 1: crystals obtained at low supersaturation Ds^c=12.5%): 0.03 m^2/g
Specific surface area by mass ([3]; Example 2: crystals, supersaturation 14%): 0.03 m^2/g
Specific surface area by mass ([3]; Example 2: crystals, supersaturation 50%): 0.045 m^2/g
Specific surface area by mass ([3]; Example 2: crystals, supersaturation 86%): 0.07 m^2/g
SMILES: CC(O)C(=O)O (centres unmarked) [lactic acid, hydroxy-2-propanoic acid]
